Measurements as given in ChEMBL document CHEMBL1130628, “Synthesis and antiproliferative activity of a cyclic analog of dolastatin 10” (Bioorg Med Chem Lett, 1998).

Experiments:
Tubulin alpha chain [1] = target: T1, Tubulin alpha chain (Sus scrofa, UniProt P02550); experiment: Compound was tested in vitro for inhibition of tubulin polymerization.; assay type: functional
HT-29 = experiment: Compound was evaluated for antiproliferative activity against human colon adenocarcinoma (HT-29) cell lines.; assay type: functional, cell-based
L1210 [2] = experiment: Compound was evaluated for antiproliferative activity against murine leukemia (L1210) cell lines.; assay type: functional, cell-based; details: Mus musculus
L1210 [3] = experiment: Compound was evaluated for antiproliferative activity against murine leukemia (L1210) cell lines; assay type: functional, cell-based; details: Mus musculus
Tubulin alpha chain [4] = target: T1, Tubulin alpha chain; experiment: Compound was tested in vitro for inhibition of tubulin polymerization; assay type: functional

T1 sequence (P02550 whole entry, looked up): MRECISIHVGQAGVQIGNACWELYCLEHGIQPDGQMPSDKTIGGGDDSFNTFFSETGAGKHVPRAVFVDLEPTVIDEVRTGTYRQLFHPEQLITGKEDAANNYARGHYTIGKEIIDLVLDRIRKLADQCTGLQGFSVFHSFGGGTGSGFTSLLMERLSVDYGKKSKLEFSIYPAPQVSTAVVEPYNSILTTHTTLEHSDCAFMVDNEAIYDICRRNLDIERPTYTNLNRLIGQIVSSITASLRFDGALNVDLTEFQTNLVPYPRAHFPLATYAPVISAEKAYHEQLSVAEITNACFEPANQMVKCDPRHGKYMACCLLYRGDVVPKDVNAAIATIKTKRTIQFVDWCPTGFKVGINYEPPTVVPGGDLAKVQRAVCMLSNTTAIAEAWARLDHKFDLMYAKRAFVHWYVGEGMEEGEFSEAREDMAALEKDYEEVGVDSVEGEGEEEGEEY

Structure (SMILES)	IC50 (Tubulin alpha chain [1])	IC50 (HT-29)	IC50 (L1210 [2])	IC50 (L1210 [3])	IC50 (Tubulin alpha chain [4])
CC[C@H](C)[C@@H]([C@@H](CC(=O)N1CCC[C@H]1[C@H](OC)C(C)C(=O)NC(Cc1ccccc1)c1nccs1)OC)N(C)C(=O)[C@@H](NC(=O)[C@H](C(C)C)N(C)C)C(C)C (single isomer, unassigned) [DOLASTATIN-10]	2200 nM	0.06 nM	0.03 nM		
CC[C@H](C)[C@H]1[C@H](OC)CC(=O)N2CCC[C@H]2[C@H](OC)[C@H](C)C(=O)N[C@@H](Cc2ccccc2)c2nc(cs2)C(=O)O[C@H](C)[C@H](N(C)C)C(=O)N[C@@H](C(C)C)C(=O)N1C		58.5 nM		111 nM	39000 nM
